Assay results: US4622342A, “Secondary amines” (priority 1981, dated 1986)
Where a name gives a salt, the structure may show the parent alone. Read-outs that look alike come from different tables or passages of the source.

Tests used:
blood glucose = experiment: Anti-hyperglycaemic activity (blood glucose after subcutaneous glucose in fasted mice); type: in vivo, Female CFLP mice; details: Mus musculus, read-out: Reduction in area under blood glucose curve
Procedure: Female CFLP mice, each weighing approximately 25 g were fasted for 24 hours prior to the study. The compounds under study were administered orally as an aqueous solution to each of 6 mice. 6 mice were given water as a control. 30 minutes later a blood sample (20 μl ) was obtained from the tail for the analysis of blood glucose. Immediately after taking this blood sample, glucose (1 g/kg body weight) was administered subcutaneously to each mouse. Blood samples were then obtained from each mouse at 30 minute intervals for 120 minutes.
Compounds that produced a significant (P<0.05) reduction of blood glucose, compared with control mice given water, at any time interval, were considered active. The area under the blood glucose curve over the 2 hour period after the adminstration of the glucose was calculated for each compound and compared with the value for control animals.

Rat hearts = experiment: Cardiac activity, rat hearts perfused by the Langendorff procedure
Procedure: Rat hearts were perfused by the Langendorff procedure as follows:
Hearts were dissected free within 30 seconds of death and reverse perfused via the aorta and coronary vessels with Krebs-Ringer bicarbonate solution (pH 7.4, 37° C.) gassed with 95% oxygen:5% carbon dioxide at a flow rate between 8-12 cm^3 /minute. Responses were observed after injection of drug dissolved in isotonic saline into the perfusion media.
Results are expressed as a percentage of the maximum response due to salbutamol.

platelet aggregation = experiment: Platelet aggregation inhibition activity (collagen-induced fall in platelet count, oral dosing); type: in vivo, Male CFLP mice; details: collagen 400 μg/kg i.v. two hours later
Procedure: Male CFLP mice (ca 20 g, n=8) were dosed orally with compound or vehicle (controls) after an overnight fast. Two hours later each mouse received an intravenous dose of collagen (400 μg/kg, pH 6-6.6). Exactly 30 seconds after injection of collagen, each mouse was placed in a chamber of CO2 until respiration ceased. […] Each blood platelet count was expressed as a percent of that obtained in a tail blood sample taken immediately before injection of collagen.

rat ear inflammation = experiment: Topical anti-inflammatory activity (croton oil rat ear inflammation); type: in vivo; details: 1.0 mg/rat ear; 6 hours; activity = significant (5% level) reduction in ear weight vs non-drug treated control
Procedure: The method used is based on that described by G. Tonelli et al (Endocrinology, 77, 625-634, 1965). An inflammation is induced in the rat ear by the application of 50 μl of a 1% solution of croton oil in tetrahydrofuran, test compounds being dissolved in the irritant vehicle. After 6 hours the inflammation is assessed by killing the animals and weighing the ears. Topical anti-inflammatory activity of a compound is generally considered to be shown when a significant (5% level) reduction in ear weight is seem compared to non-drug treated control.

[1] = read-out: Heart Rate (percentage of the maximum response due to salbutamol)
[2] = read-out: Heart Tension (percentage of the maximum response due to salbutamol)
[3] = dose 1 μ moles/kg po, 2 hour period after glucose 1 g/kg s.c.
[4] = 10 μg added to perfusate (salbutamol dose not given), read-out: Heart Rate (percentage of the maximum response due to salbutamol)
[5] = 10 μg added to perfusate (salbutamol dose not given), read-out: Heart Tension (percentage of the maximum response due to salbutamol)

COc1ccc(C[C@@H](C)NC[C@H](O)c2cccc(Cl)c2)cc1F (relative stereo) [Example 4, N-[2-(3-Fluoro-4-methoxyphenyl)-1-methylethyl]-2-hydroxy-2-(3-chlorophenyl)ethanamine hydrobromide-(RR,SS) diastereoisomer]
inhibition in vivo at 1 µmol/kg (blood glucose; po, 2 h): 42%

CC(Cc1ccc(O)cc1)NCC(O)c1cccc(Cl)c1 (stereo not shown) [Example 2, N-[2-(4-Hydroxyphenyl)-1-methylethyl]-2-hydroxy-2-(3-chlorophenyl)ethanamine]
inhibition in vivo at 1 µmol/kg (blood glucose; po, 2 h): 47%
Emax (Rat hearts; [1]): 14%
Emax (Rat hearts; [2]): 26%
% INHIBITION OF RESPONSE TO COLLAGEN (platelet aggregation; dose 5 μmol/kg po): 40%

COc1ccc(C[C@H](C)NC[C@H](O)c2cccc(Cl)c2)cc1F (relative stereo) [Example 15, N-[2-(3-Fluoro-4-methoxyphenyl)-1-methylethyl]-2-hydroxy-2-(3-chlorophenyl)ethanamine-(RS,SR) diastereoisomer]
inhibition in vivo at 1 µmol/kg (blood glucose; po, 2 h): 19%

COc1ccc(CCC(C)(C)NCC(O)c2cccc(Cl)c2)cc1 (stereo not shown) [Example 16, N-[3-(4-Methoxyphenyl)-1,1-dimethylpropyl]-2-hydroxy-2-(3-chlorophenyl)ethanamine]
inhibition in vivo at 50 µmol/kg (blood glucose; dose 50 μ moles/kg po, 2 hour period after glucose 1 g/kg s.c.): 21%

CC(Cc1ccc(OC2CCCCC2)cc1)NCC(O)c1cccc(Cl)c1 (stereo not shown) [Example 21, N-[2-(4-Cyclohexyloxyphenyl)-1-methylethyl]-2-hydroxy-2-[3-chlorophenyl)ethanamine hydrochloride]
inhibition in vivo at 2.5 µmol/kg (blood glucose; po, 2 h): 53%

COc1ccc(C[C@H](C)NC[C@H](O)c2cccc(Cl)c2)cc1OC (relative stereo) [Example 20, N-[2-(3,4-Dimethoxyphenyl)-1-methylethyl]-2-hydroxy-2-(3-chlorophenyl)ethanamine-(RS,SR) diastereoisomer]
inhibition in vivo at 2.5 µmol/kg (blood glucose; po, 2 h): 34%

COc1ccc(CC(C)NCC(O)c2cccc(Cl)c2)cc1 (stereo not shown) [Example 5, N-[2-(4-Methoxyphenyl)-1-methylethyl]-2-hydroxy-2-(3-chlorophenyl)ethanamine]
inhibition in vivo at 1 µmol/kg (blood glucose; po, 2 h): 49%
Topical anti-inflammatory ACTIVITY (rat ear inflammation): Active

COc1ccc(CC(C)NCC(O)c2cccc(Cl)c2)cc1F (stereo not shown) [Example 3, N-[2-(3-Fluoro-4-methoxyphenyl)-1-methylethyl]-2-hydroxy-2-(3-chlorophenyl)ethanamine]
inhibition in vivo at 1 µmol/kg (blood glucose; po, 2 h): 46%
Emax (Rat hearts; [1]): 0%
Emax (Rat hearts; [2]): 36%

CCCCCCCCCCOc1ccc(CC(C)NCC(O)c2cccc(Cl)c2)cc1 (stereo not shown) [Example 13, N-[2-(4-^n Decyloxyphenyl)-1-methylethyl]-2-hydroxy-2-(3-chlorophenyl)ethanamine]
inhibition in vivo at 1 µmol/kg (blood glucose; [3]): 22%

COc1ccc(CCNCC(O)c2cccc(Cl)c2)cc1 (stereo not shown) [Example 14, N-[2-(4-Methoxyphenyl)ethyl]-2-hydroxy-2-(3-chlorophenyl)ethanamine]
inhibition in vivo at 1 µmol/kg (blood glucose; [3]): 39%

COc1ccc(C[C@@H](C)NC[C@H](O)c2cccc(Cl)c2)cc1 (relative stereo) [Example 6, N-[2-(4-Methoxyphenyl)-1-methylethyl]-2-hydroxy-2-(3-chlorophenyl)ethanamine hydrobromide-(RR,SS) diastereoisomer]
inhibition in vivo at 0.5 µmol/kg (blood glucose; po, 2 h): 30%
inhibition in vivo at 1 µmol/kg (blood glucose; po, 2 h): 40%

COc1ccc(CC(C)NCC(O)c2cccc(Cl)c2F)cc1 (stereo not shown) [Example 9, N-[2-(4-Methoxyphenyl)-1-methylethyl]-2-hydroxy-2-(3-chloro-2-fluorophenyl)ethanamine]
inhibition in vivo at 1 µmol/kg (blood glucose; po, 2 h): 40%

COc1ccc(CC(C)NCC(O)c2cccc(Cl)c2)cc1C (stereo not shown) [Example 18, N-[2-(4-methoxy-3-methylphenyl)-1-methylethyl]-2-hydroxy-2-(3-chlorophenyl)ethanamine]
inhibition in vivo at 2.5 µmol/kg (blood glucose; po, 2 h): 58%

CC(CCc1ccc(O)cc1)NCC(O)c1cccc(Cl)c1 (stereo not shown) [Example 10, N-[3-(4-Hydroxyphenyl)-1-methylpropyl]-2-hydroxy-2-(3-chlorophenyl)ethanamine]
inhibition in vivo at 1 µmol/kg (blood glucose; [3]): 47%
% INHIBITION OF RESPONSE TO COLLAGEN (platelet aggregation; dose 5 μmol/kg po): 40%

CC(Cc1ccc(OCCc2ccccc2)cc1)NCC(O)c1cccc(Cl)c1 (stereo not shown) [Example 22, N-[2-(4-{2-phenylethoxy}phenyl)-1-methylethyl]-2-hydroxy-2-(3-chlorophenyl)ethanamine]
inhibition in vivo at 2.5 µmol/kg (blood glucose; dose 2.5 μ moles/kg po, 2 hour period after glucose 1 g/kg s.c.): 13%

COc1ccccc1CC(C)NCC(O)c1cccc(Cl)c1 (stereo not shown) [Example 24, N-[2-(2-Methoxyphenyl)-1-methylethyl]-2-hydroxy-2-(3-chlorophenyl)ethanamine]
inhibition in vivo at 5 µmol/kg (blood glucose; po, 2 h): 27%

COc1ccc(C[C@@H](C)NCC(O)c2cccc(Cl)c2)cc1F (stereo partly drawn) [Example 17, N-[2-(3-Fluoro-4-methoxyphenyl)-1-(R)-1-methylethyl]-2-(R,S)-2-hydroxy-2-(3-chlorophenyl)ethanamine hydrobromide]
inhibition in vivo at 2.5 µmol/kg (blood glucose; po, 2 h): 38%

CC(Cc1ccc(OC(C)C)cc1)NCC(O)c1cccc(Cl)c1 (stereo not shown) [Example 11, N-[2-(4-Isopropoxyphenyl)-1-methylethyl]-2-hydroxy-2-(3-chlorophenyl)ethanamine]
inhibition in vivo at 0.2 µmol/kg (blood glucose; po, 2 h): 12.5%

CCCCCOc1ccc(CC(C)NCC(O)c2cccc(Cl)c2)cc1 (stereo not shown) [Example 12, N-[2-(4-^n Pentyloxyphenyl)-1-methylethyl]-2-hydroxy-2-(3-chlorophenyl)ethanamine]
inhibition in vivo at 0.5 µmol/kg (blood glucose; po, 2 h): 36%

COc1ccc(CC(C)NCC(O)c2cccc(Cl)c2)cc1OC (stereo not shown) [Example 19, N-[2-(3,4-Dimethoxyphenyl)-1-methylethyl]-2-hydroxy-2-(3-chlorophenyl)ethanamine]
inhibition in vivo at 2.5 µmol/kg (blood glucose; po, 2 h): 21%

COc1ccc(CC(C)NCC(O)c2cccc(F)c2)cc1 (stereo not shown) [Example 7, N-[2-(4-Methoxyphenyl)-1-methylethyl]-2-hydroxy-2-(3-fluorophenyl)ethanamine]
inhibition in vivo at 5 µmol/kg (blood glucose; po, 2 h): 32%

CC(=O)Oc1ccccc1C(=O)O [Aspirin, reference compound]
% INHIBITION OF RESPONSE TO COLLAGEN (platelet aggregation; dose 600 μmol/kg po): 33%

COc1ccc(CC(C)NCC(O)c2cccc(Br)c2)cc1 (stereo not shown) [Example 8, N-[2-(4-Methoxyphenyl)-1-methylethyl]-2-hydroxy-2-(3-bromophenyl)ethanamine]
inhibition in vivo at 1 µmol/kg (blood glucose; po, 2 h): 30%

COc1cccc(CC(C)NCC(O)c2cccc(Cl)c2)c1 (stereo not shown) [Example 23, N-[2-(3-Methoxyphenyl)-1-methylethyl]-2-hydroxy-2-(3-chlorophenyl)ethanamine hydrochloride]
inhibition in vivo at 2.5 µmol/kg (blood glucose; po, 2 h): 22%

CC(C)(C)NCC(O)c1ccc(O)c(CO)c1 (stereo not shown) [Salbutamol, salbutamol, reference compound]
Emax (Rat hearts; [4]): 100%
Emax (Rat hearts; [5]): 100%

CC(Cc1ccc(OCc2ccccc2)cc1)NCC(O)c1cccc(Cl)c1 (stereo not shown) [Example 1, N-[2-(4-Benzyloxyphenyl)-1-methylethyl]-2-hydroxy-2-(3-chlorophenyl)ethanamine]
inhibition in vivo at 1 µmol/kg (blood glucose; [3]): 36%
Emax (Rat hearts; [4]): 0%
Emax (Rat hearts; [5]): 7%
